Test results published in patent publication US7407973B2, “Use of pirfenidone in therapeutic regimens” (Intermune, Inc., priority 2003, dated 2008).

Columns and labels:
Format in all cases: biochemical
SAPK = assay: Human kinase panel, overall conclusion: SAPK
Procedure: (§1) Enzymatic activity of various human kinases was assayed in the presence and the absence of pirfenidone. Percent enzyme activity of various human enzymes in the presence of substrate and pirfenidone are shown in FIGS. 1-5, and in Table 2, below, where “percent enzyme activity” is the percent of the control activity (e.g., in the absence of pirfenidone): […]

other kinases tested = assay: Human kinase panel, overall conclusion: other kinases
Procedure: as §1

SAPK2β = SAPK2β (Homo sapiens, UniProt Q15759); assay: Enzymatic activity of human kinase in presence of pirfenidone; details: percent of control activity in absence of pirfenidone, concentration not given
Chain of SAPK2β (Q15759 whole entry): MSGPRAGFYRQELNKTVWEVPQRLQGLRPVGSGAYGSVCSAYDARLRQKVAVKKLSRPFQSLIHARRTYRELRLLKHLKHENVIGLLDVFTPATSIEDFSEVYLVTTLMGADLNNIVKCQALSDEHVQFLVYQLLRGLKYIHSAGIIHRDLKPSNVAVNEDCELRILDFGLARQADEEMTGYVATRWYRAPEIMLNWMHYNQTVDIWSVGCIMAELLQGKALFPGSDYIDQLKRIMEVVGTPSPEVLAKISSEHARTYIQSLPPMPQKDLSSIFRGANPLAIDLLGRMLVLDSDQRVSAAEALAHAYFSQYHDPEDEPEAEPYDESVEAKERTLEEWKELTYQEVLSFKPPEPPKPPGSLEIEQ
Procedure: as §1

PDGFR = PDGFR (Homo sapiens, UniProt P16234); assay: as above; details: percent of control activity in absence of pirfenidone, concentration not given
Procedure: as §1

Fyn = Fyn (Homo sapiens, UniProt P06241); assay: as above; details: percent of control activity in absence of pirfenidone, concentration not given
Chain of Fyn (P06241 whole entry): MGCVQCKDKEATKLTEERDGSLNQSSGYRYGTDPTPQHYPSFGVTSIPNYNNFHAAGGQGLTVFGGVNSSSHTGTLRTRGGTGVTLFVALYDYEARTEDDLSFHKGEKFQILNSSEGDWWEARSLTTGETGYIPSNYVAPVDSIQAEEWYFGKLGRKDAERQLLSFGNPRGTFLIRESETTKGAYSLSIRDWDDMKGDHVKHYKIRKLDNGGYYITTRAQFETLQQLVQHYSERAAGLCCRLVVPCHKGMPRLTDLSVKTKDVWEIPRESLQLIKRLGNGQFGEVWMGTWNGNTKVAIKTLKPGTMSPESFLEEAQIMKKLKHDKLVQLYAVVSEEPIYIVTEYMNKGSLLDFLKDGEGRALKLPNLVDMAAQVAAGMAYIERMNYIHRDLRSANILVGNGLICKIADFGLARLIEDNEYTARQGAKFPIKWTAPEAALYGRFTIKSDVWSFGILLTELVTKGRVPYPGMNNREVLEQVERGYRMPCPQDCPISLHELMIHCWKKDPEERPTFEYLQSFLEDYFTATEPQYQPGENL
Procedure: as §1

MKK7β = MKK7β (Homo sapiens, UniProt O14733); assay: as above; details: percent of control activity in absence of pirfenidone, concentration not given
Chain of MKK7β (O14733 whole entry): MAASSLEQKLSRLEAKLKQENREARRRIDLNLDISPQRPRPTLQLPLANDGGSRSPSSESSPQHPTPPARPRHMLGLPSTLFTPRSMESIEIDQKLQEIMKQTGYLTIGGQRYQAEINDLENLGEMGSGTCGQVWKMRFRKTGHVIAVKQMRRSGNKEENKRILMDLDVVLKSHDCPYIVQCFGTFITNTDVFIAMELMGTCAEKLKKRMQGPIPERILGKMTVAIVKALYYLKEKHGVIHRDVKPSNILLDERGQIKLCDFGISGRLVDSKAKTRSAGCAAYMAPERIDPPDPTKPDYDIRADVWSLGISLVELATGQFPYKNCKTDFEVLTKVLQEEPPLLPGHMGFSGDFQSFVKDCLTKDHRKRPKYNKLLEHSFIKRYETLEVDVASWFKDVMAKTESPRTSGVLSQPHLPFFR
Procedure: as §1

MAPK1 (Homo sapiens) = assay: as above; details: percent of control activity in absence of pirfenidone, concentration not given
Procedure: as §1

PKBγ = PKBγ (Homo sapiens, UniProt Q9Y243); assay: as above; details: percent of control activity in absence of pirfenidone, concentration not given
Procedure: as §1

PKCa = assay: as above; details: percent of control activity in absence of pirfenidone, concentration not given
Procedure: as §1

IGF-1R = IGF-1R (Homo sapiens, UniProt P08069); assay: as above; details: percent of control activity in absence of pirfenidone, concentration not given
Procedure: as §1

PKCβII = PKCβII (Homo sapiens, UniProt P05771); assay: as above; details: percent of control activity in absence of pirfenidone, concentration not given
Procedure: as §1

PKCδ = PKCδ (Homo sapiens, UniProt Q05655); assay: as above; details: percent of control activity in absence of pirfenidone, concentration not given
Procedure: as §1

Aurora-A = Aurora-A (Homo sapiens, UniProt O14965); assay: as above; details: percent of control activity in absence of pirfenidone, concentration not given
Procedure: as §1

JNK3 = JNK3 (Homo sapiens, UniProt P53779); assay: as above; details: percent of control activity in absence of pirfenidone, concentration not given
Procedure: as §1

CSK = CSK (Homo sapiens, UniProt P41240); assay: as above; details: percent of control activity in absence of pirfenidone, concentration not given
Procedure: as §1

GSK3β = GSK3β (Homo sapiens, UniProt P49841); assay: as above; details: percent of control activity in absence of pirfenidone, concentration not given
Procedure: as §1

CHK2 = CHK2 (Homo sapiens, UniProt O96017); assay: as above; details: percent of control activity in absence of pirfenidone, concentration not given
Procedure: as §1

PKCα = PKCα (Homo sapiens, UniProt P17252); assay: as above; details: percent of control activity in absence of pirfenidone, concentration not given
Procedure: as §1

c-RAF = c-RAF (Homo sapiens, UniProt P04049); assay: as above; details: percent of control activity in absence of pirfenidone, concentration not given
Procedure: as §1

CDK5/cyclinB = CDK5/cyclinB (Homo sapiens, UniProt Q00535); assay: as above; details: percent of control activity in absence of pirfenidone, concentration not given
Procedure: as §1

PKCo = assay: as above; details: percent of control activity in absence of pirfenidone, concentration not given
Procedure: as §1

Syk = Syk (Homo sapiens, UniProt P43405); assay: as above; details: percent of control activity in absence of pirfenidone, concentration not given
Procedure: as §1

Yes = Yes (Homo sapiens, UniProt P07947); assay: as above; details: percent of control activity in absence of pirfenidone, concentration not given
Procedure: as §1

Ax1 = Ax1 (Homo sapiens, UniProt P30530); assay: as above; details: percent of control activity in absence of pirfenidone, concentration not given
Chain of Ax1 (P30530 26-894): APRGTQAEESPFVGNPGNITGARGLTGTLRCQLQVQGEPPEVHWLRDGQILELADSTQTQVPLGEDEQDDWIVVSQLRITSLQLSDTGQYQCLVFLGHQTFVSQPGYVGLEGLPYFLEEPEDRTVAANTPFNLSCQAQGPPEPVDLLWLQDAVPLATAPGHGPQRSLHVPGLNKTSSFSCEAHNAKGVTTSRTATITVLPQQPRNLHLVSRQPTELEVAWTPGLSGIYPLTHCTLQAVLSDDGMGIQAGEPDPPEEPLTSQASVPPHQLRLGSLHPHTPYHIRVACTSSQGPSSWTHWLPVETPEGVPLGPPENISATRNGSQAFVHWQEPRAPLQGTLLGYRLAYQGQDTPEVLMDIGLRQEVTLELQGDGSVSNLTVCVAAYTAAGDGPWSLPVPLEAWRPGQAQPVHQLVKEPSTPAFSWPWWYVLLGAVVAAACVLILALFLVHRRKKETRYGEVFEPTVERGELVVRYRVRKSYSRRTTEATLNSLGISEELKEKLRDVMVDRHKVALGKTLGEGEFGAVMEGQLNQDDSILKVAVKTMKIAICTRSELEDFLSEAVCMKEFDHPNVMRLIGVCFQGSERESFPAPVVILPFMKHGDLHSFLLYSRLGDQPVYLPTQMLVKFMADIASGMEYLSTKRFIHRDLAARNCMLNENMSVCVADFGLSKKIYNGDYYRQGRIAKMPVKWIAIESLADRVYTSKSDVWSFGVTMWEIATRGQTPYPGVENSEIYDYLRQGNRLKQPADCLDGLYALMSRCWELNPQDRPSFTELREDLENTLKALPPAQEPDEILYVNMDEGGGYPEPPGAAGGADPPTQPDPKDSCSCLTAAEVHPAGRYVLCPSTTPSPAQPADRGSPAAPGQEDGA
Procedure: as §1

PKD2 = PKD2 (Homo sapiens, UniProt Q9BZL6); assay: as above; details: percent of control activity in absence of pirfenidone, concentration not given
Procedure: as §1

PRAK = PRAK (Homo sapiens, UniProt Q8IW41); assay: as above; details: percent of control activity in absence of pirfenidone, concentration not given
Chain of PRAK (Q8IW41 whole entry): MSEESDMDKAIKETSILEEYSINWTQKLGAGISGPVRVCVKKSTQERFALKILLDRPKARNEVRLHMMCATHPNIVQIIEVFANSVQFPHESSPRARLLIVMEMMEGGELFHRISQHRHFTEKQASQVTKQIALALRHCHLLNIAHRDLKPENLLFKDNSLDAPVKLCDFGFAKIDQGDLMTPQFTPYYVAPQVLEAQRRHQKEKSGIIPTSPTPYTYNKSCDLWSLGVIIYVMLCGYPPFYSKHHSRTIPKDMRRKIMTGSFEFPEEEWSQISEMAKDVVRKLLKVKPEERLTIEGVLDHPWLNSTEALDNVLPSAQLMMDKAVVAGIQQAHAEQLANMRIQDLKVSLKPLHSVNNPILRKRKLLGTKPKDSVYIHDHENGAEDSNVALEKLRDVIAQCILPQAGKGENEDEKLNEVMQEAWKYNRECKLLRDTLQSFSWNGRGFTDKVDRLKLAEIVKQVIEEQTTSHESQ
Procedure: as §1

CaMKIV = CaMKIV (Homo sapiens, UniProt Q16566); assay: as above; details: percent of control activity in absence of pirfenidone, concentration not given
Procedure: as §1

SAPK2α = SAPK2α (Homo sapiens, UniProt Q16539); assay: as above; details: percent of control activity in absence of pirfenidone, concentration not given
Procedure: as §1

MAPK2 = MAPK2 (Homo sapiens, UniProt P28482); assay: as above; details: percent of control activity in absence of pirfenidone, concentration not given
Procedure: as §1

SAPK3 = SAPK3 (Homo sapiens, UniProt P53778); assay: as above; details: percent of control activity in absence of pirfenidone, concentration not given
Procedure: as §1

CDK2/cyclinE = CDK2/cyclinE (Homo sapiens, UniProt P24941); assay: as above; details: percent of control activity in absence of pirfenidone, concentration not given
Procedure: as §1

PDGFRβ = PDGFRβ (Homo sapiens, UniProt P09619); assay: as above; details: percent of control activity in absence of pirfenidone, concentration not given
Procedure: as §1

Fes = Fes (Homo sapiens, UniProt P07332); assay: as above; details: percent of control activity in absence of pirfenidone, concentration not given
Procedure: as §1

IKKβ = IKKβ (Homo sapiens, UniProt O14920); assay: as above; details: percent of control activity in absence of pirfenidone, concentration not given
Procedure: as §1

Bmx = Bmx (Homo sapiens, UniProt P51813); assay: as above; details: percent of control activity in absence of pirfenidone, concentration not given
Chain of Bmx (P51813 whole entry): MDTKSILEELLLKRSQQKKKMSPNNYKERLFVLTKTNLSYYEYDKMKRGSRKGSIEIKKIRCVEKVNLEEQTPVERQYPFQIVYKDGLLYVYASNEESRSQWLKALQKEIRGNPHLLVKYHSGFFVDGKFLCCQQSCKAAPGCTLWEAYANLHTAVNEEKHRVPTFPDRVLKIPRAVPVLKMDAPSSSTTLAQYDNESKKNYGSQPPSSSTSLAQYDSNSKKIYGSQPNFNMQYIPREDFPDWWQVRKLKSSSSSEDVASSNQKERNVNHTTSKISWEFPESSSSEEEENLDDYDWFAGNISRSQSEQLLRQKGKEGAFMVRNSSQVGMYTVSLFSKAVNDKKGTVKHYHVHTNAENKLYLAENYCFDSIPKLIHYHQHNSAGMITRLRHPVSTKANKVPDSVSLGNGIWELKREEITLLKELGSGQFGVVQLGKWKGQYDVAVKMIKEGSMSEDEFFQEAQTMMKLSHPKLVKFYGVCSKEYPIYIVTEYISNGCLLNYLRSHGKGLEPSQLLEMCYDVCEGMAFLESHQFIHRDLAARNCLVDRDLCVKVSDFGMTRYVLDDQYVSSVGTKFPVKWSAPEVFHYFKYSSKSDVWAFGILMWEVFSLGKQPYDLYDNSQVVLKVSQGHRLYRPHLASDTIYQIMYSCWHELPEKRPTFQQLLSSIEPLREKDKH
Procedure: as §1

MEK1 = MEK1 (Homo sapiens, UniProt Q02750); assay: as above; details: percent of control activity in absence of pirfenidone, concentration not given
Procedure: as §1

CK2 = CK2 (Homo sapiens, UniProt P68400); assay: as above; details: percent of control activity in absence of pirfenidone, concentration not given
Procedure: as §1

cSRC = cSRC (Homo sapiens, UniProt P12931); assay: as above; details: percent of control activity in absence of pirfenidone, concentration not given
Procedure: as §1

CHK1 = CHK1 (Homo sapiens, UniProt O14757); assay: as above; details: percent of control activity in absence of pirfenidone, concentration not given
Procedure: as §1

MSK1 = MSK1 (Homo sapiens, UniProt O75582); assay: as above; details: percent of control activity in absence of pirfenidone, concentration not given
Chain of MSK1 (O75582 whole entry): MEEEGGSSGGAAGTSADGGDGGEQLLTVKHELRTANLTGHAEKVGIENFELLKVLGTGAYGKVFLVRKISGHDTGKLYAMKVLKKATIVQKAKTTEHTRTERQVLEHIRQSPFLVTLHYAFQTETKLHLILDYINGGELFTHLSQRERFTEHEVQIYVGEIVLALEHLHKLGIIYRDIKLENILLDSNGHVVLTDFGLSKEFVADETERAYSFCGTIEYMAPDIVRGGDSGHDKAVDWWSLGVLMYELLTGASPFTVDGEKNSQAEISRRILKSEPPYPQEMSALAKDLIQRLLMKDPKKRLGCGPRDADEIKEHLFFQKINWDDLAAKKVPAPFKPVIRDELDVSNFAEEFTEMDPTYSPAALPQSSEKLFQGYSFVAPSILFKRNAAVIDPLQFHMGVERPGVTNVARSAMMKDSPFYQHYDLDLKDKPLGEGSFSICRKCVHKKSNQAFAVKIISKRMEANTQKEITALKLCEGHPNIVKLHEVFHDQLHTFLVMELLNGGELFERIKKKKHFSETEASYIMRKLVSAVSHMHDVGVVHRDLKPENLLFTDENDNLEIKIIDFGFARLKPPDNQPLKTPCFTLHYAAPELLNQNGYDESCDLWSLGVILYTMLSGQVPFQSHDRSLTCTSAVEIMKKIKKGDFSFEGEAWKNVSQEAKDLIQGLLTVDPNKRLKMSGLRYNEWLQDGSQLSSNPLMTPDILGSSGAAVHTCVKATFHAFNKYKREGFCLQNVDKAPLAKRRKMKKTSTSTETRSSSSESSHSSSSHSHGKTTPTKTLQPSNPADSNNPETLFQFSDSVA
Procedure: as §1

PKCη = PKCη (Homo sapiens, UniProt P24723); assay: as above; details: percent of control activity in absence of pirfenidone, concentration not given
Procedure: as §1

ZAP-70 = ZAP-70 (Homo sapiens, UniProt P43403); assay: as above; details: percent of control activity in absence of pirfenidone, concentration not given
Chain of ZAP-70 (P43403 whole entry): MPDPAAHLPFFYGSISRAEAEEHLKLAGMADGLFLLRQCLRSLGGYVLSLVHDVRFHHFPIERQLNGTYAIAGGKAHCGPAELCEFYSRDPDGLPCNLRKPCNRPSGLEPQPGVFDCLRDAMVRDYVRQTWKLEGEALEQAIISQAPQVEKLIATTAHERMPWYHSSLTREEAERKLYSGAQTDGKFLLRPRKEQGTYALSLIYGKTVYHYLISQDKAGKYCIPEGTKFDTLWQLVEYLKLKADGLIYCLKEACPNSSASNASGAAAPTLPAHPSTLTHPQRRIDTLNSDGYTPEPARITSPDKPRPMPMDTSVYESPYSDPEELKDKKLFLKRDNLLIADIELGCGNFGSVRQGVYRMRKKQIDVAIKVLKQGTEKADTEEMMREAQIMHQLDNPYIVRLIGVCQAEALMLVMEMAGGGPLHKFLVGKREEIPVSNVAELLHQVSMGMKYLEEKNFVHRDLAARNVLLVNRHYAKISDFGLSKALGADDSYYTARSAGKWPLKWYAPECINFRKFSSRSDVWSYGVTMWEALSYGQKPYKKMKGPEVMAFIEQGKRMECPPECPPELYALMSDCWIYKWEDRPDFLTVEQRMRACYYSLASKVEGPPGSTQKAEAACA
Procedure: as §1

CDK3/cyclinE = CDK3/cyclinE (Homo sapiens, UniProt Q00526); assay: as above; details: percent of control activity in absence of pirfenidone, concentration not given
Procedure: as §1

SAPK4 = SAPK4 (Homo sapiens, UniProt O15264); assay: as above; details: percent of control activity in absence of pirfenidone, concentration not given
Procedure: as §1

## Cc1ccc(=O)n(-c2ccccc2)c1 [pirfenidone, 5-methyl-1-phenyl-2-(1H)-pyridone]
SAPK
  Inhibition of SAPK (conclusion from Table 2 data): is an inhibitor of SAPK
Other kinases tested
  Inhibition of other kinases tested (conclusion from Table 2 data): does not substantially inhibit
SAPK2β
  % Activity: 74%
PDGFR
  % Activity: 101%
Fyn
  % Activity: 97%
MKK7β
  % Activity: 105%
MAPK1 (Homo sapiens)
  % Activity: 98%
PKBγ
  % Activity: 111%
PKCa
  % Activity: 96%
IGF-1R
  % Activity: 92%
PKCβII
  % Activity: 100%
PKCδ
  % Activity: 102%
Aurora-A
  % Activity: 120%
JNK3
  % Activity: 106%
CSK
  % Activity: 64%
GSK3β
  % Activity: 91%
CHK2
  % Activity: 84%
PKCα
  % Activity: 94%
c-RAF
  % Activity: 91%
CDK5/cyclinB
  % Activity: 102%
PKCo
  % Activity: 106%
Syk
  % Activity: 78%
Yes
  % Activity: 104%
Ax1
  % Activity: 93%
PKD2
  % Activity: 98%
PRAK
  % Activity: 90%
CaMKIV
  % Activity: 107%
SAPK2α
  % Activity: 70%
MAPK2
  % Activity: 100%
SAPK3
  % Activity: 46%
CDK2/cyclinE
  % Activity: 89%
PDGFRβ
  % Activity: 101%
Fes
  % Activity: 88%
IKKβ
  % Activity: 90%
Bmx
  % Activity: 86%
MEK1
  % Activity: 100%
CK2
  % Activity: 94%
cSRC
  % Activity: 91%
CHK1
  % Activity: 105%
MSK1
  % Activity: 93%
PKCη
  % Activity: 88%
ZAP-70
  % Activity: 109%
CDK3/cyclinE
  % Activity: 86%
SAPK4
  % Activity: 98%
